Measurements: PMC8899577, “Targeting the anti-apoptotic Bcl-2 family proteins: machine learning virtual screening and biological evaluation of new small molecules” (Theranostics, 2022)

Columns and labels:
Bcl-2 = Bcl-2 (Homo sapiens, UniProt P10415); test: SPR binding to immobilized Bcl-2; conditions: SPR, 25 °C, 2-site fit, highest affinity site
Procedure: (§1) FastStep experiments were performed with a SensiQ Pioneer apparatus. Bcl-2 immobilization on COOH5 sensorchips was carried out essentially as previously reported, [40]. All the experiments were carried out at 25 °C in degassed HEPES 20 mM, pH 7.4, NaCl 150 mM, 0.005% surfactant P20 + 2% DMSO (HBSP2%D). […] Each sensorgram is the average of at least three experiments. The decrease in Response Units (RU) after 165 s indicates analyte dissociation from the immobilized Bcl-2 upon HSBP2%D buffer injection. Control SPR experiments were carried out measuring sensorgrams on Bcl-xL and Mcl-1 (ligands) immobilized on COOH5 sensorchips as previously reported at 25 °C in degassed HBSP2%D buffer. […] Each sensorgram is the average of at least three experiments. The decrease in RU after 180 s indicates analyte dissociation from the immobilized ligands upon HSBP2%D buffer injection. Kinetic evaluation of the sensorgrams was carried out using the Qdat 4.0 program; best fittings were obtained with 2 sites and indicated in red (reported KD values refer to dissociation constants of the highest affinity site).
Figure 2 SPR analysis of the interaction between putative inhibitors of Bcl-2 anti-apoptotic members and Bcl-2 protein. Bcl-2 was immobilized via amine coupling onto a COOH5 sensorchip; Bcl-2 family inhibitors (analytes) were injected at a flow rate = 100 μL/min, at the following concentrations. 0-30 s: 0.625 μM; 31-60 s: 1.25 μM; 61-90 s: 2.5 μM; 91-120 s: 5 μM; 121-150 s: 10 μM; 151-165 s: 20 μM. The increase in Response Units (RU) relative to baseline indicates complex formation between the immobilized Bcl-2 ligand and the analytes upon Bcl-2 family inhibitors injection. The decrease in RU after 165 s indicates analyte dissociation from the immobilized Bcl-2 upon buffer injection. Full fittings with 2 sites are indicated in red. The fitted KD values are the following.

M14 cells [1] = test: Western blot of PARP1 cleavage, M14; assay type: cell-based, Human; conditions: 72 h
Procedure: (§2) Western blot analyses of total protein extracts were performed as previously described. Immunodetection was performed using antibodies directed to poly (ADP-ribose) polymerase (PARP; BD Biosciences San Diego, CA, USA), LC3B (Cell Signaling Technology, Danvers, MA), HSP72/73 (Calbiochem, EMD Biosciences, La Jolla, CA), Bcl-2 (SC-509, Santa Cruz Biotechnology Inc, Dallas, TX, USA), Bcl-xL (SC-271121, Santa Cruz Biotechnology Inc), Mcl-1 (SC-12756, Santa Cruz Biotechnology Inc) α-tubulin (Santa Cruz Biotechnology Inc) actin (Sigma-Aldrich, St. Louis, Missouri, USA). Anti-rabbit or anti-mouse immunoglobulin G-horseradish peroxidase-conjugated antibodies (Amersham Biosciences, Freiburg, Germany) were used as secondary antibody. Images were acquired by Image Lab Software (Bio-Rad, Hercules, CA, USA), using a ChemiDoc System instrument (Bio-Rad). The densitometric evaluation was performed using Image J software and normalized with relative controls.
Figure 5 Analysis of apoptosis induction by IS20 and IS21 in leukemia, melanoma and NSCLC cells. […] (A-F) Reported images are representative of two independent experiments with similar results. HSP72/73 or α-Tubulin are shown as loading and transferring control. (G) Flow cytometric quantification of cells in the subG1 peak of cell cycle distribution by propidium iodide staining in HL60 cell line treated with IS20 or IS21 (20 μM for 24 h) and in M14, H1299 and MDA-MB-231 cell lines treated with IS20 or IS21 (20 μM for 72 h). Data are reported as mean ± SD of three independent experiments. p-values were calculated between control (Ctrl) and treated cells, * p < 0.05. (H) Flow cytometric quantification of cells in the subG1 peak by propidium iodide staining in M14 and H1299 cell lines treated with IS20 or IS21 (20 μM, 72 h) in presence or absence of the pan caspase inhibitor z-VAD (50 μM). p-values were calculated between treated control (Ctrl) cells, # p < 0.01, ## p < 0.001 or between cells treated with IS20 or IS21 alone or in combination with z-VAD, * p < 0.05, ** p < 0.005. (G-H) Data are reported as mean of two (H) or three (G) experiments ± SD.

Mcl-1 = Mcl-1 (Homo sapiens, UniProt Q07820); test: SPR binding to immobilized Mcl-1; conditions: analyte 0.3-30 µM
Chain of Mcl-1 (Q07820 whole entry): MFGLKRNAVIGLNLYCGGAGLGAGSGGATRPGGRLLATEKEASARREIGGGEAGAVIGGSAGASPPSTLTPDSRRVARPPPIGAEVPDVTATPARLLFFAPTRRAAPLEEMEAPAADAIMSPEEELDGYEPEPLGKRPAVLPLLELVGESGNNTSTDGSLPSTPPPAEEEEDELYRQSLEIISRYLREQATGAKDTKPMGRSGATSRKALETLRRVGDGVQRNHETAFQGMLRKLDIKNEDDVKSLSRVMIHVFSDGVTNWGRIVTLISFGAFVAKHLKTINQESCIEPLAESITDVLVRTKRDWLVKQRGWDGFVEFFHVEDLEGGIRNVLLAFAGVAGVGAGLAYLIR
Procedure: as §1
Figure 3 SPR analysis of the interaction between IS20 or IS21 and Bcl-xL and Mcl-1 proteins. SPR experiments were carried out measuring sensorgrams on Bcl-xL and Mcl-1 (ligands) immobilized on COOH5 sensorchips at 25 °C in degassed HBSP2%D buffer. IS20 and IS21 (analytes) were injected at a flow rate = 30 μL/min, at the following concentrations: 0.3 μM (only for Mcl-1 experiments); 1 μM; 3 μM; 10 μM; 30 μM. Each sensorgram is the average of at least three experiments. The decrease in RU (Response Units) after 180 s indicates analyte dissociation from the immobilized ligands upon HSBP2%D buffer injection. The fitted KD values for Bcl-xL are the following. IS20: 0.42 ± 0.09 μM and IS21: 0.51 ± 0.17 μM. The fitted KD values for Mcl-1are the following. IS20: 3.9 ± 0.30 μM and IS21: 1.16 ± 0.14 μM;

M14 cells [2] = test: Western blot of LC3B-I/LC3B-II (autophagy), M14; assay type: cell-based, Human; conditions: 72 h
Procedure: as §2
Figure 6 Analysis of autophagosome accumulation in M14 and H1299 cells after treatment with IS20 or IS21. Western blot analysis of LC3B-I and LC3B-II protein levels in (A) M14, and (B) H1299 cell lines untreated (Ctrl) or treated with IS20 or IS21 for 72 h at the indicated concentrations. (C) Western blot analysis of LC3B-I and LC3B-II levels in HL60 and U937 cell lines untreated (Ctrl) or treated with IS20 or IS21 (20 μM for 24 h). (A-C) Reported images are representative of two independent experiments with similar results. HSP72/73, Actin or α-Tubulin are shown as loading and transferring control. […] Ratio of LC3B-II on LC3B-I levels, after normalization on HSP72/73, Actin or α-Tubulin, is quantified by densitometric analysis. (D) (Upper panels) Representative images and (lower panels) relative quantification of fluorescence microscopic analysis of LC3B puncta positive cells in M14 EGFP-LC3B and H1299 EGFP-LC3B transfected cells, treated with IS20 or IS21 (20 µM for 72h). […] Cells with more than 10 puncta were considered autophagy-positive. p-values were calculated between untreated (Ctrl) and treated cells, * p < 0.05.

Chain of Bcl-2 (P10415 whole entry): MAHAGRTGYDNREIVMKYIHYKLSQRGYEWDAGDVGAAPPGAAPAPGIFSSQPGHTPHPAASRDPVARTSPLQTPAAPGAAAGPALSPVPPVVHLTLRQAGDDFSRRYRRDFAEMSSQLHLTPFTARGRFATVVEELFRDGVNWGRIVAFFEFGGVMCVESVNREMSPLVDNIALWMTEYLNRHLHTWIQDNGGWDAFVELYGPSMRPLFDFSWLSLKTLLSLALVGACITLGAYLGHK

Q: Which Kd (Bcl-2) does the source give for `CC(C)(C)c1ccc(-c2nnc(SCc3ccccc3F)n2N)cc1` [IS29] here?
A: 3400 ± 1100 nM

Q: Which “PARP1 cleavage, M14” value (M14 cells [1]) does the source give for `CC1(C)CCC(CN2CCN(c3ccc(C(=O)NS(=O)(=O)c4ccc(NCC5CCOCC5)c([N+](=O)[O-])c4)c(Oc4cnc5[nH]ccc5c4)c3)CC2)=C(c2ccc(Cl)cc2)C1` [ABT-199, venetoclax, reference compound] here?
A: PARP1 cleavage

Q: And the “interaction with Mcl-1 (SPR)” value (Mcl-1)?
A: negligible interaction

Q: For `COc1ccc(-c2cc(C(F)F)nc(N3CCN(Cc4ccccc4C)CC3)n2)cc1OC` [ISP], which Kd (Bcl-2) is on record?
A: 770 ± 140 nM

Q: For `CC(C)(C)c1ccc(C=NN2CCN(Cc3ccccc3Cl)CC2)cc1` [IS1], which Kd (Bcl-2) is on record?
A: 480 ± 110 nM

Q: `O=C(CN1CCN(Cc2ccccc2Cl)CC1)N/N=C/c1ccccc1C(F)(F)F` [IS27] was tested. Which Kd (Bcl-2) did it give?
A: 4600 ± 900 nM

Q: With `CC1(C)CCC(c2ccc(Cl)cc2)=C(CN2CCN(c3ccc(C(=O)NS(=O)(=O)c4ccc(N[C@H](CCN5CCOCC5)CSc5ccccc5)c(S(=O)(=O)C(F)(F)F)c4)cc3)CC2)C1` [ABT-263, navitoclax, reference compound] as the compound, how does the “ratio of LC3B-II on LC3B-I / LC3B-II protein level, M14” value (M14 cells [2]) read?
A: increased

Q: What about the “PARP1 cleavage, M14” value (M14 cells [1]) of the same compound?
A: PARP1 cleavage
